In patent US20250302712A1, “COMPOSITION FOR SKIN MOISTURIZING COMPRISING PHENYLLACTIC ACID” (AMOREPACIFIC CORPORATION, priority 2024, published 2025) one finds HAS2 gene expression data, which are given here for one compound.

The test deals with HAS2 (Hyaluronan synthase 2). The test is described as follows: HAS2 gene expression in blue light irradiated human keratinocytes (HaCaT), Taqman real-time PCR. It is filed as cell-based. The conditions noted are these: blue light 410 nm 120 J/cm^2, PLA 50 μM (8.3 ppm). As for the experimental part: The Lactobacillus plantarum APsulloc 331261 (KCCM11179P) strain used in Experimental Example above was inoculated into a medium containing MRS broth, phenylalanine at a concentration of 40 mM, and calcium carbonate at a concentration of 1%, and the culture medium was cultured for 3 days. The cells were removed by centrifugation, and 1 liter was prepared. An equal amount of ethyl acetate was added to the prepared culture medium and the reaction was performed, and the water layer and the ethyl acetate layer of the culture medium were waited for separation. The separated ethyl acetate layer was heated and distilled, and an appropriate amount of water (about 100 mL) was added to the remaining concentrate to prepare a Lactobacillus culture extract containing phenyllactic acid. […]
In addition, the hyaluronic acid production promotion effect of the culture medium of Lactobacillus strains prepared as shown in Table 1 was compared. The strains Lactobacillus plantarum APsulloc 331261 (KCCM11179P), Lactobacillus plantarum KCTC3108, Lactobacillus acidophilus KCTC3164, and Lactobacillus sakei KTCT3603 were inoculated into MRS broth, and 0.5% of the culture medium static-cultured at 35° C. for 3 days was added, and the gene expression amount of HAS2 (Hyaluronan synthase 2) was measured in the same manner as above.

As to `O=C(O)C(O)Cc1ccccc1` (stereo not shown) [PLA, Phenyllactic acid], the HAS2 gene expression entry is listed as “significantly improved the decrease in HAS2 gene expression caused by blue light”.
